Data reported in patent US8841259B2, “Compositions and methods for treating vascular permeability” (Joslin Diabetes Center, priority 2005, dated 2014).

Key:
[1] = tested on: retina of streptozotocin diabetic rats; assay: OCT imaging of retinal thickness in diabetic rats after intravitreal CA-1; assay type: in vivo, rat
Experimental: Rats had diabetes induced by intraperitoneal injection of streptozotocin (55 mg/kg) after overnight fast. Diabetes was confirmed after 24 hours with blood glucose greater than 250 mg/dl. After 2 weeks of diabetes, rats were injected intravitreally with CA-1 or BSS and the retinas imaged by OCT after 48 hours. Retinal ultrastructure was imaged and quantitatively measured using a high-speed, ultrahigh resolution OCT system with Fourier/spectral domain detection. Using a broadband superluminescent diode light source (Superlum Diodes Limited, Moscow, Russia) with a 155 nm bandwidth, a 2.6 μm axial resolution in tissue was achieved after digital spectral shaping. The imaging speed was 26,000 axial scans per second and the system sensitivity was 96 dB with an axial (depth) scan range of 1.3 mm in tissue. The OCT research instrument was designed for small animal retinal imaging and used a post-objective scanning microscope with a 10 μm transverse resolution. Corneal refraction was compensated with a coverslip and Goniosol (CIBA Vision Ophthalmics). Each data set consisted of 256 images with 512 axial scans per image, acquired in a raster pattern on the retina. Measurements of intraretinal layer thicknesses were performed on individual cross sectional OCT images.

[2] = tested on: retinal vascular permeability (RVP) in rats; assay: Retinal vascular permeability by vitreous fluorophotometry after intravitreal injection; assay type: in vivo, rat; settings: for RVP (vitreous fluorescein intensity): CA-1 200 ng/eye, BSS control 7.4 au; for effect on CA-1 induced permeability: co-injection of serpin family proteins
Experimental: (§1) To measure retinal vascular permeability, 265 male Sprague Dawley and 12 male Long-Evans rats (Taconic Farms, Germantown, N.Y.) with initial body weights of 250 g were used. Experiments were performed in accordance with guidelines from the Association for Research in Vision and Opthalmology and approval from the Animal Care and Use committee of the Joslin Diabetes Center. Video fluorescein angiography was performed using a scanning laser opthalmoscope (Rodenstock Instrument, Munich, Germany) (Horio et al., Diabetologia 47:113-123 (2004)). Vitreous fluorophotometry and administration of fluorescein-dextran was performed as described previously (Aiello et al., Diabetes 46:1473-1480 (1997)).
Intravitreal injection of CA-1 increased RVP, as measured by vitreous fluorophotometry, in a dose-dependent manner (FIG. 3A), with a maximal increase of 2.3 fold (p<0.05) at 2 μg. […] The effect of a single dose of CA-1 on RVP was sustained at 59% over control at 24 hours post injection (FIG. 3B).

[3] = tested on: blood-brain barrier permeability in rats; assay: Blood-brain barrier permeability to Evans blue after subdural infusion; assay type: in vivo, rat
Experimental: Approximately 22 hours later, 0.7 ml Evans blue was injected through a jugular vein catheter. After the dye circulated for 120 minutes, the rats were perfused with 50 ml saline through the left ventricle at 110 mmHg pressure. After decapitation, the brain was weighed and Evan's blue was extracted by incubating each brain in 1 ml of formamide for 20 hours at 60° C. The extract was centrifuged (14,000 rpm for 30 minutes). The absorbance of the filtrate was measured with a spectrophotometer at 620 nm. The concentration of dye in the extracts was calculated from a standard curve of Evans blue in formamide, normalized to the brain weight, and expressed per gram of tissue.

[4] = tested on: retinal vascular permeability (RVP) in rats; assay: Video fluorescein angiography of rat retina after intravitreal injection; assay type: in vivo
Experimental: as §1
Carbonic anhydrase was not detected by either mass spectroscopy or western blot analysis in the vitreous of untreated Sprague Dawley rats.

[5] = tested on: retinal vascular permeability (RVP) in rats; assay: Retinal Evans blue permeability after intravitreal lysed RBC or CA-1; assay type: in vivo, rat
Experimental: To prepare lysed RBCs, 3 ml rat blood in 15 ml saline was centrifuged at 1,000 g for 10 minutes; the plasma and buffy coat were discarded. The RBCs were then washed in 12 ml saline. The packed cells were frozen in liquid nitrogen for 5 minutes and then allowed to thaw at room temperature. The lysed RBCs were centrifuged at 12,000 rpm for 30 minutes. The supernatant was used for experiment. […] Approximate 21 hours later, Evans blue was injected at a dosage of 30 mg/kg. After the dye had circulated for 3 hours the rats were perfused via the left ventricle with saline. The retina were harvested and Evans blue dye was extracted by incubation in 0.3 ml formamide for 20 hours at 60° C. The extract was centrifuged (14,000 rpm for 30 minutes). The absorbance of the filtrate was measured with a spectrophotometer at 620 nm. The concentration of dye in the extracts was calculated from a standard curve.

[6] = tested on: RVP in rat eyes injected with human vitreous; assay: Transplant of human vitreous into rat vitreous, RVP measurement; assay type: in vivo; settings: vitreous pretreated with 10 μM
Experimental: In these tests, 10 μl of human vitreous was injected into the rat vitreous compartment and the response on retinal vascular permeability was measured.

[7] = diabetic rat, 48 hours after intravitreal injection, OCT
[8] = intravitreal injection of 100 μM

CA-1: carbonic anhydrase-1, extracellular erythrocyte enzyme injected as vascular permeability factor
increase of ONL share of retinal thickness compared with BSS-treated diabetic rats ([1]; 48 hours): 17%
increase of ONL share of retinal thickness compared with nondiabetic rats ([1]; 48 hours): 18%
ONL share of overall retinal thickness ([1]; diabetic rat, 48 hours): 38%
increase in outer nuclear layer (ONL) thickness vs contralateral saline vehicle eye [1, 7]: 30%
increase in retina thickness vs contralateral saline vehicle eye [1, 7]: 12%
increase of RVP ([2]; 200 ng/eye (20 μg/ml) intravitreal, vs BSS, P<0.05): 2.4 fold
maximal increase of RVP ([2]; at 2 μg intravitreal, p<0.05): 2.3 fold
EC50 as final concentration in vitreous ([2]; following dilution in 100 uL of rat vitreous): about 670 pg/μL
EC50 for increase of RVP ([2]; intravitreal injection): 67 ng
RVP (vitreous fluorescein intensity) ([2]; intravitreal injection): 17.4 au
RVP over control ([2]; single dose, 24 hours post injection): 59%
Evan's blue leakage on posterior and anterior surfaces of the brain ([3]; subdural infusion, 24 hours): induced intense focal areas of Evan's blue leakage
increase of permeability in brain compared to BSS ([3]; subdural infusion, Evan's blue quantification, P<0.05): 2.3 fold
retinal vascular leakage (fluorescein and 2000 kDa fluorescein-dextran) ([4]; 48 hours after intravitreal injection): focal areas of retinal vascular leakage were observed
retinal fluorescein leakage ([4]; intravitreal 2 μg/ml, at 30 minutes, vs baseline or BSS): increased retinal fluorescein leakage
RVP compared with eyes that received BSS ([5]; intravitreal injection, Evans blue): 3.0 fold

CC(=O)Nc1nnc(S(N)(=O)=O)s1 [acetazolamide, reference compound]
effect on RVP in rat eyes injected with vitreous from noDR and NDM groups [6]: did not affect
RVP in rat eyes injected with vitreous from subjects with PDR ([6]; reduced from 13.67±5.23, P=0.017, n=5): 9.20±3.85
effect on basal RVP ([2]; 10 μM): no effect
inhibition at 10 µM ([2]; Rattus norvegicus, co-injection of 10 μM, p<0.05, read-out: inhibition of CA-1 induced RVP): 68%
effect on increase in RVP induced by CA-1 ([4]; co-injection 10 μM with CA-1): blocked
effect on increase in RVP by lysed RBC ([5]; pretreatment of lysed RBC with 10 μM, P<0.05): blocked

Hoe 140 [reference compound]
reduction of CA-1 stimulated RVP ([2]; co-injection with CA-1): 67%

VEGF
RVP (vitreous fluorescein intensity) ([2]; intravitreal injection): 14.5 au

CC(=O)N[C@@H](CC(C)C)C(=O)N[C@@H](CC(C)C)C(=O)N[C@H](C=O)CCCNC(=N)N [leupeptin, reference compound]
reduction of CA-1 stimulated RVP [2, 8]: 71%

aprotinin [reference compound]
reduction of CA-1 stimulated RVP [2, 8]: 50%

B1: angiotensinogen: serpin family protein (protein, UniProt P01019 25-476, looked up)
Angiotensinogen: DRVYIHPFHLVIHNESTCEQLAKANAGKPKDPTFIPAPIQAKTSPVDEKALQDQLVLVAAKLDTEDKLRAAMVGMLANFLGFRIYGMHSELWGVVHGATVLSPTAVFGTLASLYLGALDHTADRLQAILGVPWKDKNCTSRLDAHKVLSALQAVQGLLVAQGRADSQAQLLLSTVVGVFTAPGLHLKQPFVQGLALYTPVVLPRSLDFTELDVAAEKIDRFMQAVTGWKTGCSLMGASVDSTLAFNTYVHFQGKMKGFSLLAEPQEFWVDNSTSVSVPMLSGMGTFQHWSDIQDNFSVTQVPFTESACLLLIQPHYASDLDKVEGLTFQQNSLNWMKKLSPRTIHLTMPQLVLQGSYDLQDLLAQAELPAILHTELNLQKLSNDRIRVGEVLNSIFFELEADEREPTESTQQLNKPEVLEVTLNRPFLFAVYDQSATALHFLGRVANPLSTA
effect on CA-1 induced permeability [2]: did not block

B2: C1-INH: Complement-1 Inhibitor, inhibits the serum protease kallikrein (protein, UniProt P05155 23-500, looked up)
Plasma protease C1 inhibitor: NPNATSSSSQDPESLQDRGEGKVATTVISKMLFVEPILEVSSLPTTNSTTNSATKITANTTDEPTTQPTTEPTTQPTIQPTQPTTQLPTDSPTQPTTGSFCPGPVTLCSDLESHSTEAVLGDALVDFSLKLYHAFSAMKKVETNMAFSPFSIASLLTQVLLGAGENTKTNLESILSYPKDFTCVHQALKGFTTKGVTSVSQIFHSPDLAIRDTFVNASRTLYSSSPRVLSNNSDANLELINTWVAKNTNNKISRLLDSLPSDTRLVLLNAIYLSAKWKTTFDPKKTRMEPFHFKNSVIKVPMMNSKKYPVAHFIDQTLKAKVGQLQLSHNLSLVILVPQNLKHRLEDMEQALSPSVFKAIMEKLEMSKFQPTLLTLPRIKVTTSQDMLSIMEKLEFFDFSYDLNLCGLTEDPDLQVSAMQHQTVLELTETGVEAAAASAISVARTLLVFEVQQPFLFVLWDQQHKFPVFMGRVYDPRA
effect on VEGF-induced retinal fluorescein permeability ([2]; co-injection): did not affect
reduction of CA-1 stimulated RVP ([2]; co-injection with CA-1): 92%
effect on CA-1-induced cerebral vascular permeability ([3]; subdural, with CA-1): blocked

B3: PEDF: pigment epithelium-derived factor, serpin family protein (protein, UniProt P36955 20-418, looked up)
Pigment epithelium-derived …: QNPASPPEEGSPDPDSTGALVEEEDPFFKVPVNKLAAAVSNFGYDLYRVRSSTSPTTNVLLSPLSVATALSALSLGAEQRTESIIHRALYYDLISSPDIHGTYKELLDTVTAPQKNLKSASRIVFEKKLRIKSSFVAPLEKSYGTRPRVLTGNPRLDLQEINNWVQAQMKGKLARSTKEIPDEISILLLGVAHFKGQWVTKFDSRKTSLEDFYLDEERTVRVPMMSDPKAVLRYGLDSDLSCKIAQLPLTGSMSIIFFLPLKVTQNLTLIEESLTSEFIHDIDRELKTVQAVLTVPKLKLSYEGEVTKSLQEMKLQSLFDSPDFSKITGKPIKLTQVEHRAGFEWNEDGAGTTPSPGLQPAHLTFPLDYHLNQPFIFVLRDTDTGALLFIGKILDPRGP
effect on CA-1 induced permeability [2]: did not block
